These are literature values, as cited in patent US20220395522A1, “Methods of Use of Glucosamine for Increasing Nitrogen Retention” (TSI Bioproducts (Xuzhou) Co., Ltd., priority 2021, published 2022).

For the data set the following is noted: cited from earlier work.

Take `N[C@H]1C(O)O[C@H](CO)[C@@H](O)[C@@H]1O` (some centres unmarked) [glucosamine]: the Ingested glucosamine absorbed (human digestive tract) is listed as 10-12%. For the setting “in vivo”, the “Ingested glucosamine metabolized by members of the intestinal microbiota before it is absorbed” value is on record as “more than 50%”.
